Source: patent publication US12102087B2 (priority 2012, dated 2024)
Where two headings read alike, the source gives them in different places.

Legend:
Assay type in all cases: in vivo
[1] = test system: Phytophthora infestans; experiment: whole plant or invertebrate; details: for pest or weed control at 0.2 ppm: application rate 0.2 ppm a.i.
[2] = test system: Sphaerotheca fuliginea; experiment: Sphaerotheca test (cucumbers)/preventive
Description: (§1) A synergistic effect of fungicides is always present when the fungicidal activity of the active compound combinations exceeds the total of the activities of the active compounds when applied individually. The expected activity for a given combination of two active compounds can be calculated as follows (cf. Colby, S. R., “Calculating Synergistic and Antagonistic Responses of Herbicide Combinations”, Weeds 1967, 15, 20-22):
(§2) If • X is the efficacy when active compound A is applied at an application rate of m ppm (or g/ha), • Y is the efficacy when active compound B is applied at an application rate of n ppm (or g/ha), • E is the efficacy when the active compounds A and B are applied at application rates of m and n ppm (or g/ha), respectively, and
Sphaerotheca Test (Cucumbers)/Preventive • Solvent: 24.5 parts by weight of acetone • 24.5 parts by weight of dimethylacetamide • Emulsifier: 1 part by weight of alkylaryl polyglycol ether
(§3) To produce a suitable preparation of active compound, 1 part by weight of active compound is mixed with the stated amounts of solvent and emulsifier, and the concentrate is diluted with water to the desired concentration.
To test for preventive activity, young plants are sprayed with the preparation of active compound at the stated rate of application. After the spray coating has dried on, the plants are inoculated with an aqueous spore suspension of Sphaerotheca fuliginea. The plants are then placed in a greenhouse at approximately 23° C. and a relative atmospheric humidity of approximately 70%.
The test is evaluated 7 days after the inoculation. 0% means an efficacy which corresponds to that of the untreated control, while an efficacy of 100% means that no disease is observed.

[3] = test system: Venturia inaequalis; experiment: Venturia test (apples)/preventive; details: for pest or weed control at 2 ppm: application rate 2 ppm a.i.
Description: as §1, §2
Venturia test (apples)/preventive • Solvent: 24.5 parts by weight of acetone • 24.5 parts by weight of dimethylacetamide • Emulsifier: 1 part by weight of alkylaryl polyglycol ether
as §3
To test for preventive activity, young plants are sprayed with the preparation of active compound at the stated rate of application. After the spray coating has dried on, the plants are inoculated with an aqueous conidia suspension of the causal agent of apple scab (Venturia inaequalis) and then remain for 1 day in an incubation cabinet at approximately 20° C. and a relative atmospheric humidity of 100%.
The plants are then placed in a greenhouse at approximately 21° C. and a relative atmospheric humidity of approximately 90%.
The test is evaluated 10 days after the inoculation. 0% means an efficacy which corresponds to that of the untreated control, while an efficacy of 100% means that no disease is observed.

[4] = test system: Alternaria solani; experiment: Alternaria test (tomatoes)/preventive; details: Table 2; for pest or weed control at 20 ppm: application rate 20 ppm a.i.
Description: as §1, §2
Alternaria Test (Tomatoes)/Preventive • Solvent: 24.5 parts by weight of acetone • 24.5 parts by weight of dimethylacetamide • Emulsifier: 1 part by weight of alkylaryl polyglycol ether
as §3
To test for preventive activity, young plants are sprayed with the preparation of active compound at the stated rate of application. After the spray coating has dried on, the plants are inoculated with an aqueous spore suspension of Alternaria solani. The plants are then placed in an incubation cabinet at approximately 20° C. and a relative atmospheric humidity of 100%.
The test is evaluated 3 days after the inoculation. 0% means an efficacy which corresponds to that of the untreated control while an efficacy of 100% means that no disease is observed.

[5] = Phytophthora infestans, 72 h, read-out: Efficacy in % found, Table 4
[6] = Table 7, application rate 1 ppm a.i.
[7] = Table 6, application rate 2.5 ppm a.i.
[8] = Venturia inaequalis, 240 h, Table 11, application rate 0.5 ppm a.i., read-out: Efficacy in % found
[9] = Phytophthora infestans, 72 h, read-out: Efficacy in % found, Table 3, application rate 2.5 ppm a.i.
[10] = Table 5, application rate 2.5 ppm a.i.
[11] = Table 9, application rate 50 ppm a.i.
[12] = Table 3, application rate 2.5 ppm a.i.
[13] = Table 3, application rate 5 ppm a.i.
[14] = Alternaria solani, 72 h, read-out: Efficacy in % found
[15] = Table 3, application rate 1.25 ppm a.i.

Cc1ccc(C(C)NC(=O)[C@@H](NC(=O)OC(C)C)C(C)C)cc1 (stereo partly shown) [9.4, iprovalicarb]
Efficacy in % found ([1]; Table 4, application rate 2 ppm a.i.): 9%

Cc1ccc(-c2c(Cl)nc(C#N)n2S(=O)(=O)N(C)C)cc1 [3.4, cyazofamid]
pest or weed control at 0.2 ppm [1, 5]: 8%

Cn1cc(C(=O)Nc2ccc(F)cc2-c2ccc(Cl)c(Cl)c2)c(C(F)F)n1 [2.1, bixafen]
Efficacy in % found [2, 6]: 10%
Efficacy in % found ([3]; Table 10, application rate 1 ppm a.i.): 84%

[Cu+2].[OH-].[OH-] [5.5, copper hydroxide]
Efficacy in % found ([2]; Table 9, application rate 10 ppm a.i.): 29%
Efficacy in % found [1, 7]: 18%
Efficacy in % found ([3]; Table 13, application rate 20 ppm a.i.): 25%

COc1ccc(C(=CC(=O)N2CCOCC2)c2ccc(Cl)cc2)cc1OC [9.2, dimethomorph]
pest or weed control at 1 ppm ([1]; Phytophthora infestans, 72 h, read-out: Efficacy in % found, Table 4, application rate 1 ppm a.i.): 20%

COC(c1ccc(Cl)cc1Cl)C(C)NC(=O)c1cn(C)nc1C(F)F (stereo not shown) [2.27, N-[1-(2,4-dichlorophenyl)-1-methoxypropan-2-yl]-3-(difluoromethyl)-1-methyl-1H-pyrazole-4-carboxamide]
Efficacy in % found ([2]; Table 7, application rate 4 ppm a.i.): 81%
pest or weed control at 2.5 ppm ([1]; Phytophthora infestans, 72 h, read-out: Efficacy in % found, Table 5, application rate 2.5 ppm a.i.): 0%
pest or weed control at 10 ppm ([1]; Phytophthora infestans, 72 h, read-out: Efficacy in % found, Table 5, application rate 10 ppm a.i.): 8%
pest or weed control at 2 ppm ([3]; Venturia inaequalis, 240 h, Table 10, read-out: Efficacy in % found): 31%
pest or weed control at 4 ppm ([3]; Venturia inaequalis, 240 h, Table 10, application rate 4 ppm a.i., read-out: Efficacy in % found): 93%

CC(C)(C)C(O)(CCc1ccc(Cl)cc1)Cn1cncn1 (stereo not shown) [1.47, tebuconazole]
pest or weed control at 2 ppm ([3]; Venturia inaequalis, 240 h, Table 11, read-out: Efficacy in % found): 11%

Cn1c(=O)c2sc3c(=O)n(C)c(=O)c3sc2c1=O [15.60, 2,6-dimethyl-1H,5H-[1,4]dithiino[2,3-c:5,6-c′]dipyrrole-1,3,5,7(2H,6H)-tetrone]
pest or weed control at 50 ppm ([3]; Venturia inaequalis, 240 h, Table 12, application rate 50 ppm a.i., read-out: Efficacy in % found): 24%
pest or weed control at 50 ppm ([4]; Alternaria solani, 72 h, application rate 50 ppm a.i., read-out: Efficacy in % found): 32%

CON=C(C(=O)OC)c1ccccc1CON=C(C)c1cccc(C(F)(F)F)c1 [3.22, trifloxystrobin]
pest or weed control at 0.5 ppm [3, 8]: 77%

CCNC(=O)NC(=O)/C(C#N)=N/OC [15.9, cymoxanil]
pest or weed control at 2.5 ppm [1, 9]: 0%
pest or weed control at 5 ppm ([1]; Phytophthora infestans, 72 h, read-out: Efficacy in % found, Table 3, application rate 5 ppm a.i.): 0%

propamocarb hydrochloride [10.10]
Efficacy in % found ([2]; Table 9, application rate 200 ppm a.i.): 0%
Efficacy in % found ([2]; Table 9, application rate 400 ppm a.i.): 0%
Efficacy in % found [1, 7]: 0%

O=C(Nc1ccccc1-c1ccc(Cl)cc1)c1cccnc1Cl [2.2, boscalid]
Efficacy in % found ([2]; Table 8, application rate 20 ppm a.i.): 62%
Efficacy in % found ([2]; Table 8, application rate 40 ppm a.i.): 86%
pest or weed control at 20 ppm ([3]; Venturia inaequalis, 240 h, Table 11, application rate 20 ppm a.i., read-out: Efficacy in % found): 85%

Cc1c(Br)c2ccc(F)cc2n1S(=O)(=O)c1ncn(S(=O)(=O)N(C)C)n1 [3.2, amisulbrom]
Efficacy in % found ([1]; Table 4, application rate 1 ppm a.i.): 19%

Cn1cc(C(=O)Nc2cccc3c2[C@@H]2CC[C@H]3C2=C(Cl)Cl)c(C(F)F)n1 (racemic) [2.29, benzovindiflupyr]
Efficacy in % found ([2]; Table 7, application rate 0.5 ppm a.i.): 0%
Efficacy in % found [1, 10]: 0%

O=[N+]([O-])c1cc(C(F)(F)F)c(Cl)c([N+](=O)[O-])c1Nc1ncc(C(F)(F)F)cc1Cl [14.4, fluazinam]
pest or weed control at 2.5 ppm [1, 9]: 0%

CO/C=C(/C(=O)OC)c1ccccc1Oc1cc(Oc2ccccc2C#N)ncn1 [3.3, azoxystrobin]
Efficacy in % found ([3]; Table 11, application rate 0.25 ppm a.i.): 38%

COC(=O)N(OC)c1ccccc1COc1ccn(-c2ccc(Cl)cc2)n1 [3.17, pyraclostrobin]
pest or weed control at 0.5 ppm [3, 8]: 19%

[Cl-].[Cu+2].[Cu+2].[OH-].[OH-].[OH-] [5.8, copper oxychloride]
Efficacy in % found [2, 11]: 10%
Efficacy in % found [1, 7]: 0%
Efficacy in % found ([3]; Table 13, application rate 50 ppm a.i.): 8%

fosetyl-aluminium [15.24]
Efficacy in % found [1, 12]: 0%
Efficacy in % found [1, 13]: 0%

Cc1cc(C)nc(Nc2ccccc2)n1 [7.7, pyrimethanil]
pest or weed control at 20 ppm [4, 14]: 32%

propineb [5.29]
Efficacy in % found ([4]; application rate 5 ppm a.i.): 0%

O=C1c2ccccc2C(=O)N1SC(Cl)(Cl)Cl [5.16, folpet]
pest or weed control at 10 ppm ([4]; Alternaria solani, 72 h, application rate 10 ppm a.i., read-out: Efficacy in % found): 0%

metalaxyl-M (mefenoxam) [12.10]
Efficacy in % found [1, 15]: 10%
Efficacy in % found [1, 12]: 36%

CO/N=C(/C1=NOCCO1)c1ccccc1Oc1ncnc(Oc2ccccc2Cl)c1F [3.12, fluoxastrobin]
pest or weed control at 0.5 ppm [3, 8]: 44%

N#Cc1c(Cl)c(Cl)c(Cl)c(C#N)c1Cl [5.4, chlorothalonil]
pest or weed control at 20 ppm ([3]; Venturia inaequalis, 240 h, Table 12, application rate 20 ppm a.i., read-out: Efficacy in % found): 14%
pest or weed control at 20 ppm [4, 14]: 5%

CC(C)C1C2CCC1c1c(NC(=O)c3cn(C)nc3C(F)F)cccc12 (stereo not shown) [2.12, isopyrazam]
Efficacy in % found [2, 6]: 19%
Efficacy in % found ([2]; Table 7, application rate 2 ppm a.i.): 57%
Efficacy in % found [1, 10]: 0%

metiram [5.25]
Efficacy in % found [2, 11]: 29%
Efficacy in % found [1, 7]: 15%
Efficacy in % found ([3]; Table 13, application rate 100 ppm a.i.): 55%

Cn1cc(C(=O)Nc2ccccc2-c2cc(F)c(F)c(F)c2)c(C(F)F)n1 [2.8, fluxapyroxad]
Efficacy in % found [2, 6]: 38%
Efficacy in % found [1, 10]: 0%
Efficacy in % found ([3]; Table 10, application rate 0.5 ppm a.i.): 25%

CCCCCOC(=O)Nc1cccc(CON=C(c2ccccc2)c2nnnn2C)n1 [15.90, pentyl {6-[({[(1-methyl-1H-tetrazol-5-yl)(phenyl)methylidene]amino}oxy)methyl]pyridin-2-yl}carbamate]
pest or weed control at 0.2 ppm [1, 5]: 10%

CSC1=N[C@@](C)(c2ccccc2)C(=O)N1Nc1ccccc1 [3.10, fenamidone]
pest or weed control at 0.5 ppm ([1]; Phytophthora infestans, 72 h, read-out: Efficacy in % found, Table 4, application rate 0.5 ppm a.i.): 3%

OC(Cc1ccccc1Cl)(Cn1nc[nH]c1=S)C1(Cl)CC1 (stereo not shown) [1.41, prothioconazole]
Efficacy in % found ([2]; Table 8, application rate 2 ppm a.i.): 19%

CC(C)[C@H](NC(=O)O)C(=O)N[C@H](C)c1nc2ccc(F)cc2s1 [9.1, benthiavalicarb]
Efficacy in % found ([1]; Table 4, application rate 0.5 ppm a.i.): 52%

CCCCCCCCc1c(CC)nc2ncnn2c1N [3.1, ametoctradin]
Efficacy in % found [1, 15]: 15%
Efficacy in % found [1, 12]: 22%

OP(O)O [15.41, phosphorous acid]
Efficacy in % found [1, 12]: 0%
Efficacy in % found [1, 13]: 13%
